Read-outs that look alike come from different tables or passages of the source. A value given as a limit tells only on which side of the number the result lay.

For data set [1] the following is noted: pH 2.3.
Data set [2] in a line: logP determination.
The test system of data set [3] is Erysiphe graminis f.sp. hordei. As to the kind of experiment: Erysiphe test (barley) / protective. The conditions noted are these: Blumeria graminis, 168 h, read-out: efficacy. In kind it is in vivo. How it is done: Erysiphe Test (Barley)/Protective
(§1) To produce a suitable preparation of active compound, 1 part by weight of active compound is mixed with the stated amounts of solvent and emulsifier, and the concentrate is diluted with water to the desired concentration.
To test for protective activity, young plants are sprayed with the active compound preparation at the stated application rate. After the spray coating has dried on, the plants are dusted with spores of Erysiphe graminis f.sp. hordei. The plants are placed in a greenhouse at a temperature of about 20° C. and a relative atmospheric humidity of about 80% to promote the development of mildew pustules.
Evaluation is carried out 7 days after the inoculation. 0% means an efficacy which corresponds to that of the control, whereas an efficacy of 100% means that no infection is observed.

The test system of data set [4] is Puccinia recondite. The data set can be described thus: Puccinia test (wheat) / protective. In kind it is in vivo. The settings on record: 240 h, read-out: efficacy. How it is done:
Puccinia Test (Wheat)/Protective
as §1
To test for protective activity, young plants are sprayed with the active compound preparation at the stated application rate. After the spray coating has dried on, the plants are sprayed with a conidia suspension of Puccinia recondite. The plants remain in an incubation cabin at 20° C. and 100% relative atmospheric humidity for 48 hours. The plants are then placed in a greenhouse at a temperature of about 20° C. and a relative atmospheric humidity of 80% to promote the development of rust pustules.
Evaluation is carried out 10 days after the inoculation. 0% means an efficacy which corresponds to that of the control, whereas an efficacy of 100% means that no infection is observed.

Data set [5] relates to Sphaerotheca fuliginea. The data set can be described thus: Sphaerotheca test (cucumber) / protective. In kind it is in vivo. The conditions noted are these: Podosphaera fuliginea, 168 h, read-out: efficacy. How it is done: Sphaerotheca Test (Cucumber)/Protective [table] To produce a suitable preparation of active compound, 1 part by weight of active compound is mixed with the stated amounts of solvent and emulsifier, and the concentrate is diluted with water to the desired concentration. To test for protective activity, young cucumber plants are sprayed with the active compound preparation at the stated application rate. 1 day after the treatment, the plants are inoculated with a spore suspension of Sphaerotheca fuliginea.

[6] abbreviates: barley, protective, active compound concentration 1000 ppm, evaluation 7 days after inoculation.
Where [7] appears, read: wheat, protective, active compound concentration 1000 ppm, evaluation 10 days after inoculation.
Where [8] appears, read: cucumber, protective, active compound concentration 500 ppm, evaluation 7 days after inoculation.

With “4-(3-tertButylphenoxy)-5-trifluoromethyl-2-methylnitrobenzene”, the “log P (pH2.3)” value in data set [1] is on record as 5.68.
A word on the logP: it is a log measure of how a compound divides between an organic and an aqueous phase. A high value points to higher lipophilicity. Regarding `Cc1cc(Oc2cccc(C(C)(C)C)c2)c(C(F)(F)F)cc1N` [4-(3-tertButylphenoxy)-5-trifluoromethyl-2-methylaniline], in data set [2] (pH 2.3, log P (pH2.3), pH 2.3), the logP came to 4.67.
Regarding `Cc1c([N+](=O)[O-])ccc(Cl)c1C(F)(F)F` [4-Chloro-3-trifluoromethyl-2-methylnitrobenzene], the “log P (HCOOH)” value in data set [2] (HCOOH) is given as 3.60.
`CCN(C)C=Nc1cc(CF)c(Oc2ccc(Cl)c(C(C)(C)C)c2)cc1C` [Compound 1, N-ethyl-N-methyl-N′-[4-(3-tert-butyl-4-chlorophenoxy)-5-fluoromethyl-2-methylphenyl]formamidine]: the logP in data set [2] (logP acid, acid) stood at 2.93. Moreover, the pest or weed control at 1000 ppm in data set [3] (setting [6]) and in data set [4] (setting [7]) was not below 70% each time.
`CCN(C)C=Nc1cc(CF)c(-c2ccc(C(C)(C)C)cc2)cc1C` [Compound 2, N-ethyl-N-methyl-N′-[4-(4-tert-butylphenyl)-5-fluoromethyl-2-methylphenyl]formamidine] gave a logP in data set [2] (logP acid, acid) of 2.67. Moreover, the pest or weed control at 1000 ppm in data set [3] (setting [6]) and in data set [4] (setting [7]) was not below 70% each time.
On to `CCN(C)C=Nc1cc(C(F)(F)F)c(Oc2ccc(Cl)c(C(C)(C)C)c2)cc1C` [Compound 3, N-ethyl-N-methyl-N′-[4-(3-tert-butyl-4-chlorophenoxy)-5-trifluoromethyl-2-methylphenyl]formamidine], for which the pest or weed control at 500 ppm in data set [5] (setting [8]) was not below 70%. Also, the logP came to 3.26 in data set [2] (logP acid, acid) and 6.68 in data set [2] (logP neutral, neutral). The pest or weed control at 1000 ppm in data set [3] (setting [6]) and in data set [4] (setting [7]) was not below 70% each time.
As for `CCN(C)C=Nc1cc(C(F)(F)F)c(Oc2cccc(C(C)C)c2)cc1C` [Compound 4, N-ethyl-N-methyl-N′-[4-(3-iso-propylphenoxy)-5-trifluoromethyl-2-methylphenyl]formamidine], the pest or weed control at 500 ppm in data set [5] is not below 70%. Further, the logP in data set [2] (logP acid, acid) is 2.65; in data set [2] (logP neutral, neutral) it was 5.74. Moreover, the pest or weed control at 1000 ppm in data set [3] and in data set [4] was not below 70% throughout.
Consider `CCN(C)C=Nc1cc(C(F)(F)F)c(Oc2ccc(Cl)c(C(F)(F)F)c2)cc1C` [Compound 5, N-ethyl-N-methyl-N′-[4-(3-trifluoromethyl-4-chlorophenoxy)-5-trifluoromethyl-2-methylphenyl]formamidine], for which, in data set [5] (setting [8]), the pest or weed control at 500 ppm is not below 70%. Besides, the logP in data set [2] (logP acid, acid) stood at 2.81; in data set [2] (logP neutral, neutral), 5.77.
For the molecule `CCCN(C)C=Nc1cc(C(F)(F)F)c(Oc2ccc(Cl)c(C(F)(F)F)c2)cc1C` [Compound 6, N-propyl-N-methyl-N′-[4-(3-trifluoromethyl-4-chlorophenoxy)-5-trifluoromethyl-2-methylphenyl]formamidine], the pest or weed control at 500 ppm in data set [5] (setting [8]) is not below 70%. For the same molecule, the logP in data set [2] (logP acid, acid) was 3.01; in data set [2] (logP neutral, neutral), 6.15. Moreover, the pest or weed control at 1000 ppm in data set [3] (setting [6]) and in data set [4] (setting [7]) was not below 70% throughout.
Molecule `Cc1cc(Oc2ccc(Cl)c(C(F)(F)F)c2)c(C(F)(F)F)cc1N=CN1CCCCC1` [Compound 7, N-piperidinyl-N′-[4-(3-trifluoromethyl-4-chlorophenoxy)-5-trifluoromethyl-2-methylphenyl]formamidine] showed a logP acid in data set [2] (acid) of 2.98. The same molecule had a logP neutral in data set [2] (neutral) of 6.19.
For `Cc1cc(Oc2ccc(Cl)c(C(C)(C)C)c2)c(C(F)(F)F)cc1N=CN(C)C` [Compound 8, N,N-dimethyl-N′-[4-(3-tert-butyl-4-chlorophenoxy)-5-trifluoromethyl-2-methylphenyl]formamidine], in data set [5] (setting [8]), the pest or weed control at 500 ppm was not below 70%. The logP was 3.13 in data set [2] (logP acid, acid) and 6.3 in data set [2] (logP neutral, neutral). Moreover, the pest or weed control at 1000 ppm in data set [3] (setting [6]) and in data set [4] (setting [7]) was not below 70% each time.
As for `CCN(C)C=Nc1cc(C(F)F)c(Oc2ccc(Cl)c(C(C)(C)C)c2)cc1C` [Compound 9, N-ethyl-N-methyl-N′-[4-(3-tert-butyl-4-chlorophenoxy)-5-difluoromethyl-2-methylphenyl]formamidine], the pest or weed control at 500 ppm in data set [5] (setting [8]) was not below 70%. Also, the logP in data set [2] (logP acid, acid) was determined as 2.82. In addition, the pest or weed control at 1000 ppm in data set [3] (setting [6]) and in data set [4] (setting [7]) was not below 70% each time.
On to `CCN(C)C=Nc1cc(C(F)F)c(Oc2ccc(Cl)c(Cl)c2)cc1C` [Compound 10, N-ethyl-N-methyl-N′-[4-(3,4-dichlorophenoxy)-5-difluoromethyl-2-methylphenyl]formamidine], for which the pest or weed control at 500 ppm in data set [5] was not below 70%. The same molecule came in with a logP in data set [2] (logP acid, acid) of 2.31. The pest or weed control at 1000 ppm in data set [3] and in data set [4] was not below 70% each time.
For `CCN(C)C=Nc1cc(C(F)(F)F)c(Oc2cccc(C(C)(C)C)c2)cc1C` [Compound 11, N-ethyl-N-methyl-N′-[4-(3-tert-butylphenoxy)-5-trifluoromethyl-2-methylphenyl]formamidine], the logP came to 2.52 in data set [2] (logP acid, acid); 6.04 in data set [2] (logP neutral, neutral); 2.52 in data set [2] (pH 2.3, log P (pH2.3), pH 2.3).
For the molecule `CCN(C)C=Nc1cc(C(F)(F)F)c(-c2ccc(C(C)(C)C)cc2)cc1C` [Compound 12], in data set [5], the pest or weed control at 500 ppm is not below 70%. Moreover, the logP was determined as 2.74 in data set [2] (logP acid, acid) and 6.15 in data set [2] (logP neutral, neutral). Also, the pest or weed control at 1000 ppm in data set [3] and in data set [4] was not below 70% in each case.
For the molecule `CCN(C)C=Nc1cc(C(F)F)c(Oc2ccccc2)cc1C` [Compound 13, N-ethyl-N-methyl-N′-[4-phenoxy-5-difluoromethyl-2-methylphenyl]formamidine], the pest or weed control at 500 ppm in data set [5] is not below 70%. This molecule also came in with a logP in data set [2] (logP acid, acid) of 1.73.
Molecule `Cc1cc(Oc2cccc(C(C)C)c2)c(C(F)F)cc1N=CN1CCCCC1` [Compound 14, N-piperidinyl-N'-[4-(3-iso-propylphenoxy)-5-difluoromethyl-2-methylphenyl]formamidine] had a logP acid in data set [2] (acid) of 2.60.
Turning to `CCN(C)C=Nc1cc(C(F)F)c(Oc2cccc(C(C)O)c2)cc1C` (centres unmarked) [Compound 15, N-ethyl-N-methyl-N′-{4-[3-(1-hydroxyethyl)-phenoxy]-5-difluoromethyl-2-methylphenyl}formamidine], in data set [5], the pest or weed control at 500 ppm was not below 70%. The molecule further displayed a logP in data set [2] (logP acid, acid) of 1.65.
For the molecule `CCN(C)C=Nc1cc(C(F)F)c(Oc2cccc(C(C)F)c2)cc1C` (centres unmarked) [Compound 16, N-ethyl-N-methyl-N′-{4-[3-(1-fluoroethyl)-phenoxy]-5-difluoromethyl-2-methylphenyl}formamidine], the pest or weed control at 500 ppm in data set [5] (setting [8]) is not below 70%. Further, in data set [2] (logP acid, acid), the logP came to 2.17.
In the case of `CCN(C)C=Nc1cc(C(F)F)c(Oc2ccc(Cl)c(C(C)C)c2)cc1C` [Compound 17, N-ethyl-N-methyl-N′-[4-(3-isopropyl-4-chlorophenoxy)-5-difluoromethyl-2-methylphenyl]formamidine], the logP in data set [2] (logP acid, acid) amounted to 2.97.
The same measure, in the same setting: the value for `CCN(C)C=Nc1cc(C(F)F)c(Oc2cccc(C(C)C)c2)cc1C` [Compound 18, N-ethyl-N-methyl-N′-[4-(3-iso-propylphenoxy)-5-difluoromethyl-2-methylphenyl]formamidine] was 2.5.

These data come from US8299301B2 (priority 2007, dated 2012).
